How the values were obtained:
MMP-2 [1] = target: T1, MMP-2 (Homo sapiens, UniProt P08253); experiment: Ex vivo inhibition of enzyme activity on human skin sections: collagen bundle hydrolysis, enzyme pre-incubated with fatty acid; type: biochemical, humaine; design: L'enzyme sous sa forme activée a été incubée pendant 15 min; conditions: for inhibition at 1 µM / inhibition at 10 µM: hydrolysis of collagen bundles by MMP-2, human skin sections, read-out: % d'inhibition; for hydrolyse des trousseaux collagéniques (observation): MMP-2 pre-incubated with fatty acid
T1 sequence (P08253 110-660): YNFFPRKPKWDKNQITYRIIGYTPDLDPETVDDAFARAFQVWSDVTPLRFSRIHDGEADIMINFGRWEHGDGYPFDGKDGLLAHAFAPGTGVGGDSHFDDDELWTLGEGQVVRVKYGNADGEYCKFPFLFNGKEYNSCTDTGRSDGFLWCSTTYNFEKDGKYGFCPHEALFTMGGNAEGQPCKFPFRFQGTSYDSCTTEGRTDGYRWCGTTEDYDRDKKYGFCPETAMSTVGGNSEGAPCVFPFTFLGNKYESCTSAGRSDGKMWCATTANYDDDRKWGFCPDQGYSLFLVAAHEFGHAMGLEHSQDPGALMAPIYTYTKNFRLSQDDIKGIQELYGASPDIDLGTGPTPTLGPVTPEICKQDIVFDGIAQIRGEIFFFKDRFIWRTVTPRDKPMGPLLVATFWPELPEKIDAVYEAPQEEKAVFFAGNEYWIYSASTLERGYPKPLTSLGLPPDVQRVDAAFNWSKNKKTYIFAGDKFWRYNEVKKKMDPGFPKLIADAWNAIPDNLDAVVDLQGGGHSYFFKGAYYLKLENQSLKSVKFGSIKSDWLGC
Description: (§1) Les études ex vivo ont été réalisées sur des coupes de peau humaine issues de prépuces d'enfants âgés de 10 à 24 mois. Les coupes mises en oeuvre étaient des coupes de congélation de 8 µm d'épaisseur, sériées.
(§2) L'effet inhibiteur de l'activité enzymatique a été déterminé de la manière suivante : les enzymes testées étaient les suivantes : MMP-2, MMP-9 ou élastase leucocytaire. L'enzyme sous sa forme activée a été incubée pendant 15 min avec différentes concentrations d'acides gras selon l'invention, puis la solution contenant l'enzyme et l'inhibiteur a été déposée sur la coupe de peau humaine et incubée 4 à 18 heures à 37°C dans une atmosphère humide.
(§3) A la fin de l'incubation, les coupes ont été colorées avec des colorants spécifiques. Le colorant de l'élastine est la + catéchine et celui des collagènes est le rouge sirius.
(§4) Les résultats obtenus ont été déterminés selon le principe de quantification suivant: les fibres élastiques ont été colorées de façon spécifique par la + catéchine, et ont été quantifiées grâce à un système morphométrique précis et automatisé. Les lames ont été observées sous microscope équipé d'une caméra. Les images générées ont été converties en niveaux de gris correspondant aux composants à étudier. Les plus petites particules ne correspondant pas à ces éléments ont été éliminées de l'analyse. Un programme spécifique a permis de calculer ensuite la surface relative occupée par les fibres. Avec les fibres élastiques on a pu calculer l'aire et également le volume occupé par celles-ci, puisque leur longueur est supérieure à leur largeur. L'aire occupée par les trousseaux collagéniques a pu être quantifiée selon la même procédure.
On a étudié l'activité protéolytique de la MMP-2 sur les collagènes. Lorsque la MMP-2 est ajoutée sur les coupes de peau, on a pu observer une hydrolyse des trousseaux collagéniques, ceux-ci étant moins denses et moins nombreux. De plus l'épiderme était décollé. L'hydrolyse était de 34 % environ.

MMP-2 [2] = target: T1, MMP-2; experiment: Inhibition of MMP enzymatic activity, hydrolysis of fluorescent synthetic substrate; type: biochemical; conditions: MMP-2, Gélatinase A
Description: (§5) On a démontré l'effet d'inhibition d'acides gras selon l'invention vis à vis de différentes métalloprotéinases matricielles. A cet effet, on a déterminé l'activité enzymatique de ces MMPs en utilisant un substrat synthétique fluorescent, le (7- méthoxycoumarine-4-yl) acétyl-Pro-Leu-Gly-Leu-(3-[2,4-dinitrophényl]-L-2,3-diaminopropionyl)-Ala-ArgNH2. Les MMPs peuvent cliver de façon spécifique la liaison amide qui lie les acides aminés Gly et Leu de ce substrat.
(§6) L'hydrolyse s'accompagne d'une augmentation sensible de la fluorescence qui peut être suivie et quantifiée à l'aide d'un spectrofluorimètre aux longueurs d'onde choisies. Suite à la rupture de la liaison Gly-Leu, le groupement dinitrophényl ne peut plus masquer la fluorescence du groupement 7-méthoxycoumarine.
(§7) On a réalisé cette hydrolyse du substrat par la MMP-2 et la MMP-9 en absence ou en présence de différentes concentrations d'acides gras selon l'invention. Les constantes d'inhibition (Ki) de l'activité enzymatique ont pu être ainsi déterminées. Les résultats obtenus figurent dans le Tableau I ci-dessous. Tableau I

MMP-9 [3] = target: T2, MMP-9 (Homo sapiens, UniProt P14780); experiment: as above; type: biochemical; conditions: MMP-9, Gélatinase B
Description: as §5, §6, §7
Target sequence in this assay (P14780 94-707): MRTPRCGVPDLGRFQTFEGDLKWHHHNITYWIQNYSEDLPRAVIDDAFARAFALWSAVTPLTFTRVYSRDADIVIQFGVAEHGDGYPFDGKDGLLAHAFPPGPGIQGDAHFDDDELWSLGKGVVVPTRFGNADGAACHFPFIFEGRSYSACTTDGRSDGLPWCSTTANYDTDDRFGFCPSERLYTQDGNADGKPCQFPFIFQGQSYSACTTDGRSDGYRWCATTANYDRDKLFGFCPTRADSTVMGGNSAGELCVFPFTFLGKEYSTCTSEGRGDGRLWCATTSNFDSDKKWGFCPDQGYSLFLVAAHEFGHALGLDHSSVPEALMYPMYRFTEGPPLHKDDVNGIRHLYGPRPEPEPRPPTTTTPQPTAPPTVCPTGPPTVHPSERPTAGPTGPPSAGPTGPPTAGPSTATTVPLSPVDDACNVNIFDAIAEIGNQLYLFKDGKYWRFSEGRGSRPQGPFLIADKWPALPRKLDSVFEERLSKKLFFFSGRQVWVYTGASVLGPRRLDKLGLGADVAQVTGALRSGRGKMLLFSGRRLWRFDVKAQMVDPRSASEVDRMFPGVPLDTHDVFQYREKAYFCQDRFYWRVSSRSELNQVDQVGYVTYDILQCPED

MMP-9 [4] = target: T2, MMP-9; experiment: Ex vivo inhibition of enzyme activity on human skin sections: elastic fibre hydrolysis, enzyme pre-incubated with fatty acid; type: biochemical, humaine; design: L'enzyme sous sa forme activée a été incubée pendant 15 min; conditions: for inhibition at 1 µM / inhibition at 10 µM: hydrolysis of elastic fibres by MMP-9, human skin sections, read-out: % d'inhibition; for inhibition de l'activité de la MMP-9 (observation): MMP-9 pre-incubated with fatty acid, elastic fibres
Description: as §1, §2, §3, §4
Target sequence in this assay (P14780 107-707 limits assumed): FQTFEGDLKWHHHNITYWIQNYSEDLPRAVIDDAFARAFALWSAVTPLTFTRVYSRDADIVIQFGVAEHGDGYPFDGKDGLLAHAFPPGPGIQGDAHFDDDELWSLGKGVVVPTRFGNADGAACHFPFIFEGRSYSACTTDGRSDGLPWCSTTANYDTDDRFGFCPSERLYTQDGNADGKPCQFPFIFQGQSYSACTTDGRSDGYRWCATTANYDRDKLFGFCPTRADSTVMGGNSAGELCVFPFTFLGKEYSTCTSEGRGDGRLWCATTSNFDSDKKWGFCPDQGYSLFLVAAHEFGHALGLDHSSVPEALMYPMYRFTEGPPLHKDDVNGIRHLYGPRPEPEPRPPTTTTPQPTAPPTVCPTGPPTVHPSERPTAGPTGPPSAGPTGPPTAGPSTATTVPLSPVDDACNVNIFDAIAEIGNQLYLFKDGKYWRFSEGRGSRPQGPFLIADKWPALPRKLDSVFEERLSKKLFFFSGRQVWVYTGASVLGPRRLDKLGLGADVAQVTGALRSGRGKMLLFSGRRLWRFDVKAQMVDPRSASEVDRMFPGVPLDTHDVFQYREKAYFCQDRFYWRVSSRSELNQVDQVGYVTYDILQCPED
Dans le cas de la MMP-9, on a étudié l'hydrolyse des fibres élastiques. En effet, à l'inverse de la MMP-2, la MMP-9 possède essentiellement une activité élastinolytique in situ.
Au niveau des fibres élastiques matures du derme moyen, on a observé une hydrolyse par la MMP-9. Les fibres élastiques étaient courtes et en paquets au lieu d'être longues et bien individualisées. L'hydrolyse était de 35 % environ. […] La quantification de l'hydrolyse des fibres élastiques par la MMP-9 en fonction des différents traitements a permis de déterminer le pourcentage d'inhibition de l'activité enzymatique. Les résultats obtenus figurent dans le Tableau III suivant : Tableau III

élastase leucocytaire = target: T3, élastase leucocytaire (Homo sapiens, UniProt P08246); experiment: Ex vivo protection of elastic fibres: skin sections pre-incubated with fatty acid, then enzyme; type: biochemical, humaine; conditions: section pre-incubated with fatty acid; degradation of elastic fibres by élastase leucocytaire; concentration not given
T3 construct: L'enzyme sous sa forme activée a été incubée pendant 15 min
T3 sequence (P08246 30-267): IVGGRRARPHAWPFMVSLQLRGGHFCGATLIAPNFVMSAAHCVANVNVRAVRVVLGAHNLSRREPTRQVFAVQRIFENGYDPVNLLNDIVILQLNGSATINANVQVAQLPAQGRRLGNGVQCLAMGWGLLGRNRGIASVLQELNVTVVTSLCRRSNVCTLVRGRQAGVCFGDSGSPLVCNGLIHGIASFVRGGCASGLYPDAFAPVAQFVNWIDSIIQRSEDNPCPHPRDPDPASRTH
Description: as §1
(§8) L'effet protecteur de la matrice extra-cellulaire a été déterminé de la façon suivante : les lames portant les coupes de peau ont été incubées sous agitation douce pendant 4 heures dans l'éthanol pur contenant l'acide gras selon l'invention à la concentration désirée. Puis les coupes ont été rincées et séchées. L'enzyme a alors été déposée sur la coupe, la lame a été mise à incuber en atmosphère humide à 37°C pendant 4 à 18 heures. A la fin de l'incubation, les lames ont été colorées avec les colorants spécifiques de l'élastine ou des collagènes mentionnés plus haut.
as §4, with “Un programme spécifique a permis de calculer ensuite la surface relative occupée par les fibres. Avec les fibres élastiques on a pu calculer l'aire et également le volume occupé par celles-ci, puisque leur longueur est supérieure à leur largeur.” left out, “procédure. […]” for “procédure.”

MMP-2 [5] = target: T1, MMP-2; experiment: Ex vivo protection of extracellular matrix fibres: skin sections pre-incubated with fatty acid, then enzyme; type: biochemical, humaine; design: L'enzyme sous sa forme activée a été incubée pendant 15 min; conditions: then MMP-2; for % de protection: 10 µM
Description: as §1, §8, §4
Les trousseaux étaient plus denses, plus épais, leurs extrémités étaient moins effilochées, le réseau apparaissait plus dense. […] La quantification des fibres a permis d'obtenir les résultats figurant dans le Tableau IV suivant : Tableau IV

MMP-9 [6] = target: T2, MMP-9; experiment: as above; type: biochemical, humaine; design: L'enzyme sous sa forme activée a été incubée pendant 15 min; conditions: then MMP-9; for % de protection: 10 µM
Description: as §1, §8, §4
Target sequence in this assay (P14780 107-707 limits assumed): as the sequence (P14780 107-707 limits assumed) above
Les résultats obtenus figurent dans le Tableau V ci-après : Tableau V

MMP-1 = target: T4, MMP-1 (Homo sapiens, UniProt P03956); experiment: Inhibition of MMP enzymatic activity, hydrolysis of fluorescent synthetic substrate; type: biochemical; conditions: MMP-1, Collagénase intersticielle
T4 sequence (P03956 100-469): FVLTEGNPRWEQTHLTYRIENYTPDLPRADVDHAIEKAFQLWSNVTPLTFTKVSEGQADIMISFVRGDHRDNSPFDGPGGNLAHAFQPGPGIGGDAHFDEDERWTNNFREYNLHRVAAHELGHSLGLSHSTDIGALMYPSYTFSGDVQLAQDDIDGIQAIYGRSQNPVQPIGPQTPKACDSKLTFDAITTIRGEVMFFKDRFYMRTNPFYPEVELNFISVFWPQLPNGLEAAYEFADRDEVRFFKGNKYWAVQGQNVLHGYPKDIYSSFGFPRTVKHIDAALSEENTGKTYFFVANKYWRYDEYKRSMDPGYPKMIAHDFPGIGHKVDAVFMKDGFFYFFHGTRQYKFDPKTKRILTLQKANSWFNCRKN

MMP-3 = MMP-3 (Homo sapiens, UniProt P08254); experiment: as above; type: biochemical; conditions: MMP-3, Stromélysine-1
MMP-3, sequence (P08254 100-477): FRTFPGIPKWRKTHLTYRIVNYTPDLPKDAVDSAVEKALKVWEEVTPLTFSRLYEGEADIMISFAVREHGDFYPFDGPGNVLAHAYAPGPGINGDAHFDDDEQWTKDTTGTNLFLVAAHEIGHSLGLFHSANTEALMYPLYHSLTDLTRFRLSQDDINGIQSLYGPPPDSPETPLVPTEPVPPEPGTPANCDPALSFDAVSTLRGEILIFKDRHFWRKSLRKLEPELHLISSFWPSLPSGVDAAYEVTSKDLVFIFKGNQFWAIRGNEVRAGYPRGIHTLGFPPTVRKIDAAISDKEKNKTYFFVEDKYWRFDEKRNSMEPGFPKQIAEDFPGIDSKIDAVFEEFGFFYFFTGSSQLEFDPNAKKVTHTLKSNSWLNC

| inhibition at 1 µM (MMP-2 [1]) [%] | hydrolyse des trousseaux collagéniques (observation) (MMP-2 [1]; 10 µM) | inhibition at 10 µM (MMP-2 [1]; 10 µM) [%] | Ki (MMP-2 [2]) [µM] | Ki (MMP-9 [3]) [µM] | inhibition at 1 µM (MMP-9 [4]) [%] | inhibition at 10 µM (MMP-9 [4]) [%] | inhibition de l'activité de la MMP-9 (observation) (MMP-9 [4]) | protection (élastase leucocytaire) [%] | hydrolyse des trousseaux collagéniques (observation) (MMP-2 [1]; 1 µM) | SMILES | % de protection (MMP-2 [5]) [%] | hydrolyse des trousseaux collagéniques (observation) (MMP-2 [5]) | % de protection (MMP-9 [6]) [%] | hydrolyse des fibres élastiques (observation) (MMP-9 [6]) | Ki (MMP-1) [µM] | Ki (MMP-3) [µM] |
| --- | --- | --- | --- | --- | --- | --- | --- | --- | --- | --- | --- | --- | --- | --- | --- | --- |
| 18 | inhibait moins l'activité enzymatique | 40 | 8 | 14 | 10 | 24 | Cette inhibition est retrouvée | 58 | – | CC/C=C/C=C/C=C/C=C\CCCCCCCC(=O)O [acide cis-parinarique] | – | – | – | – | – | – |
| 12 | l'hydrolyse était nettement diminuée | 56 | 24 | 1.9 | 16 | 48 | inhibe l'activité de celle-ci | – | l'hydrolyse a été diminuée | CC/C=C/C=C/C=C/C=C/CCCCCCCC(=O)O [acide trans-parinarique] | 61 | hydrolyse des trousseaux collagéniques nettement moins marquées | 75 | l'hydrolyse des fibres préélastiques du derme superficiel était diminuée | – | – |

| SMILES | inhibition at 1 µM (MMP-2 [1]) [%] | hydrolyse des trousseaux collagéniques (observation) (MMP-2 [1]; 10 µM) | inhibition at 10 µM (MMP-2 [1]; 10 µM) [%] | Ki (MMP-2 [2]) [µM] | Ki (MMP-9 [3]) [µM] | inhibition at 1 µM (MMP-9 [4]) [%] | inhibition at 10 µM (MMP-9 [4]) [%] | inhibition de l'activité de la MMP-9 (observation) (MMP-9 [4]) | protection (élastase leucocytaire) [%] | hydrolyse des trousseaux collagéniques (observation) (MMP-2 [1]; 1 µM) | % de protection (MMP-2 [5]) [%] | hydrolyse des trousseaux collagéniques (observation) (MMP-2 [5]) | % de protection (MMP-9 [6]) [%] | hydrolyse des fibres élastiques (observation) (MMP-9 [6]) | Ki (MMP-1) [µM] | Ki (MMP-3) [µM] |
| --- | --- | --- | --- | --- | --- | --- | --- | --- | --- | --- | --- | --- | --- | --- | --- | --- |
| CCCCCCCC/C=C/CCCCCCCC(=O)O [acide élaïdique] | – | – | – | 4.25 | 5.8 | – | – | – | – | – | 32 | La même constatation a pu être faite | 98 | l'hydrolyse des fibres élastiques matures du derme moyen par la MMP-9 était nettement diminuée | 2.7 | 1.8 |

Source: patent publication EP0985409A1, “Cosmetic use of fatty acids” (Shiseido International France SA, priority 1998, dated 2000)
